The term IC50 denotes the concentration at which inhibition is half-maximal.

Like-named read-outs stand apart in the source and are kept apart here.

The results in this text go back to patent US5059596A, “Azabicyclo compounds” (Roussel Uclaf, priority 1989, dated 1991).

The test system of one test is cyclooxygenase. Description: inhibition of eicosanoid synthesis by guinea pig peritoneal neutrophils: cyclooxygenase product (TX B2 and 5-HHT) synthesis. Format: cell-based. To be noted: [^14 C]-arachidonic acid and calcium ionophore. The protocol:
(§1) The compounds were tested for their activity as inhibitors of the synthesis of eicosanoids by guinea pig peritoneal neutrophils following the addition of [^14 C]-arachidonic acid and calcium ionophore, using a modification of the method published by Harvey et al [J. Pharmacol. Methods, Vol. 9(2), p 147-155 (1983)].

The target of the next test is T1, 5-lipoxygenase (Cavia porcellus, UniProt A0A286X958).
T1 construct: synthesis of eicosanoids by guinea pig peritoneal neutrophils; endogenous in cells; host or cells: guinea pig peritoneal neutrophils
T1 sequence (A0A286X958 1-674): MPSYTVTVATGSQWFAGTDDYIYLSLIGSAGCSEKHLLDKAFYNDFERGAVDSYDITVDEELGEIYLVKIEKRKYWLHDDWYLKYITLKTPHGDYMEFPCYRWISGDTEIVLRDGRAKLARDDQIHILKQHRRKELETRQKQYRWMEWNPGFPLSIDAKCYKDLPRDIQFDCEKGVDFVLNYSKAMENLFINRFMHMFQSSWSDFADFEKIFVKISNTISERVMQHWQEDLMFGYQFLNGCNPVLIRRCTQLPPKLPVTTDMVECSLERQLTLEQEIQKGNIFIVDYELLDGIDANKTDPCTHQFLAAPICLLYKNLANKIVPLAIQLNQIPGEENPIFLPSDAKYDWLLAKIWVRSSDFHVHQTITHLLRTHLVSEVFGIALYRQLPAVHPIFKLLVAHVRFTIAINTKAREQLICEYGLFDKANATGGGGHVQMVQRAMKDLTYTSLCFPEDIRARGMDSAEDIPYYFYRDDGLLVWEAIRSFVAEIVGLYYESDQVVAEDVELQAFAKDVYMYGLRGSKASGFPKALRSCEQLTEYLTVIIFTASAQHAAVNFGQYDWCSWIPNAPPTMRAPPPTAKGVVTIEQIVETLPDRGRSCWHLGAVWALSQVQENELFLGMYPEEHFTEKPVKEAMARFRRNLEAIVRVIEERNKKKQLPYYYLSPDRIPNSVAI
Description: inhibition of eicosanoid synthesis by guinea pig peritoneal neutrophils: 5-lipoxygenase product (5-HETE) synthesis. To be noted: [^14 C]-arachidonic acid and calcium ionophore. It counts as cell-based. As for the experimental part: as §1

For `CCSC12ON=C(c3ccc(OC)cc3)N1C(C)(C)C2(C)C` (stereo not drawn) [compound 4, 3-(p-methoxyphenyl)-5,5,6,6-tetramethyl-7-ethylthio-1-oxa-2,4-diazabicyclo[3.2.0]hept-2-ene], the IC50 in the test with cyclooxygenase (5-HHT synthesis, read-out: IC50 (5-HHT)) was 6.3 µM; with cyclooxygenase (TXB2 synthesis, read-out: IC50 (TXB2)) it was 5 µM; at 5-lipoxygenase, > 100 µM.
